Experimental data taken from patent US10227324B2 (Shanghai Haiyan Pharmaceutical Technology Co., Ltd., priority 2014, dated 2019).
Like-named read-outs stand apart in the source and are kept apart here.

What was measured:
PI3K-γ kinase (p110γ) = target: T1, PI3K-γ kinase (p110γ) (Homo sapiens, UniProt P48736); experiment: Determination of PI3K kinase activity (ADP Transcreener, fluorescence polarization); assay type: biochemical; conditions: Table 1; ATP 10 μM; read-out: PI3K-γ/nM (IC50 of inhibitory activity against PI3K kinase)
T1 construct: purchased Invitrogen PV4786
How it was run: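 Each 25 μL reaction held PI3K enzyme (p110α/p85α 3 ng, p110β/p85α 60 ng, p110δ/p85α 90 ng, or p110γ 100 ng), 10 μM ATP, 30 μM PIP2:PS and 2% DMSO, incubated 1 h at 25 °C. Compounds were tested in duplicate across a 3-fold series, 0.00046–1 μM as prepared. ADP was detected by Transcreener fluorescence polarization, quantified against an ADP/ATP standard curve, and IC50 fitted.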

[1] = target: T2, PI3K-α kinase (p110α/p85α) (Homo sapiens, UniProt P42336); experiment: as above; assay type: biochemical; conditions: ATP 10 μM
T2 construct: purchased Invitrogen PV4788

[2] = target: T3, PI3K-β kinase (p110β/p85α) (Homo sapiens, UniProt P42338); experiment: as above; assay type: biochemical; conditions: Table 1; ATP 10 μM; read-out: PI3K-β/nM (IC50 of inhibitory activity against PI3K kinase)
T3 construct: purchased Millipore 14-603

[3] = target: T4, PI3K-δ kinase (p110δ/p85α) (Homo sapiens, UniProt O00329); experiment: as above; assay type: biochemical; conditions: Table 1; ATP 10 μM; read-out: PI3K-δ/nM (IC50 of inhibitory activity against PI3K kinase)
T4 construct: purchased Millipore 14-604M

[4] = Metabolism stability assay in liver microsomes; assay type: in vitro ADME, mouse; conditions: liver microsomal metabolism in mice
Description: Buffer A: 1 L solution of 100 mM potassium dihydrogen phosphate containing 1 mM EDTA (Sigma, V900157-100G) was prepared. Buffer B: 1 L solution of 100 mM dipotassium hydrogen phosphate containing 1 mM EDTA was prepared. Buffer C: 700 mL of buffer B was taken out and titrated with buffer A to pH 7.4.
2.1 10 μl of 10 mM compound to be tested and 10 μl of 10 mM ketanserin were taken out and 190 μl of pure acetonitrile was added to each of them to prepare 500 μM compound to be tested and ketanserin, respectively.
2.2 20 μl (20 mg/mL) of liver microsomes (XENOTECH, H0610) stock solution was added to 513.4 μl of buffer C on wet ice. 0.75 mg/mL liver microsomal solution was obtained.
2.3 1.5 μl of each of the above-mentioned compound to be tested and ketanserin solution was added to 498.5 μl of liver microsomal solution (0.7 5 mg/mL) respectively on wet ice. 1.5 μM mixed solution of compound to be tested and 1.5 μM mixed solution of ketanserin were obtained.
2.4 At the time points 0, 5, 15, 30, 45, and 60 min, 30 μl of the mixed solution of compound to be tested and 30 μl of the mixed solution of ketanserin were dispensed into the reaction plate on wet ice, respectively.
2.5 5 mg reduced coenzyme II (Roche, 10621706001) was weighed and dissolved in 1 mL of buffer C. 6 mM reduced coenzyme II solution was obtained. The reduced coenzyme II solution was dispensed into the reaction plate.
2.6 Imipramine was dissolved to give a 10 mM solution. 10 μl imipramine solution was added to 100 mL of blank acetonitrile to generate the internal reference.
2.7 At 0 min, 135 μL of iced acetonitrile (Merck, UN 1648) containing the internal reference was added to each well and then 15 μL of buffer C was added.
2.8 The reaction plate was placed into a 37° C. water bath incubator for 5 min. In the reaction plate, 15 μL of reduced coenzyme II solution was added to each well to initiate the reaction, and the time keeping was started. At the time points of 5, 15, 30, 45, and 60 min, 135 μL of iced acetonitrile containing the internal reference was added to each well to terminate the reaction.
2.9 The reaction plate was sealed with an aluminum film, placed on a vibration mixer and shaken at 500 rpm for 5 min. The plate was then centrifuged in a centrifuge at 3750 rp for 15 min.
2.10 The sample was diluted with pure water in accordance with the ratio of 1:1 and detected by LC/MS.
Half-life: 0.693/K (the slope by plotting based on the incubation time and logarithm of the concentration value)
Clearance ratio: (0.693/half-life)*(1/protein concentration (0.5 mg/mL))*(proportional factor)
Wherein, the K value and the proportional factor were calculated by those skilled in the art according to the methods described in the prior art and contained in the instructions of the liver microsome product.

NIH3T3 cells = experiment: Cytotoxicity by MTT assay, NIH3T3; assay type: cell-based; conditions: cytotoxicity class, read-out: NIH3T3 cell (IC50/nM)
Description: The MTT assay procedure and steps were carried out as well known to those skilled in the art, and all the reagents used in the methods were commercially available.
The cells in logarithmic growth phase were digested with 0.25% EDTA trypsin (Gibco, 25200-056) and resuspended in fresh medium. 90 μL of the cell suspension was inoculated into a 96-well cell culture plate (BD Faclon 353072) with a suitable cell density and cultured at 37° C. under 5% CO2. After the cells adhered, 10 μL of the test compound at different concentrations (0.0046-10 μM, 8 concentration points) was added and incubated for another 72 h. 10 μL of MTT (5 mg/mL PBS solution) (Sigma, M5655) was added to react for 4 h. The absorbance at 492 nm was measured by using Thermo Scientific Multiskan MK3 microplate reader and IC50 was calculated using XLFIT 5.0 software (UK IDBS).

T47D cells = experiment: Cell inhibitory activity detected by MTT assay, T47D; assay type: cell-based; conditions: 72 h, read-out: T47D cell (IC50/nM), cell growth inhibition
[5] = tested on: Akt phosphorylation (Ser473-p-Akt) in PC-3 cells; experiment: Inhibition of p-Akt phosphorylation level in PC-3 cells (cell level fluorescence imaging); assay type: cell-based; conditions: Akt phosphorylation in PC-3 cells, 2 hours incubation; read-out: PC-3 cell (IC50/nM)
Description: This experiment was performed by cell level fluorescence image processing method.
Triton X-100: 10% aqueous Triton X-100 solution (Sigma T8787-100 mL) was prepared, stored at 4° C. and diluted by 1:100 to give 0.1% Triton X-100 aqueous solution for use in the experiment.
Prodium Iodide (PI): 1 mg/mL (1.5 mM) PI (Sigma P4170) storage solution was prepared with PBS and stored at −25° C. in the dark. For use, the PI storage solution was diluted with PBS by 1:1000 to give a 1.5 μM solution and used in dark.
PC-3 cells in logarithmic growth phase were digested with 0.25% EDTA trypsin. 3000 cells/90 μL were seeded in a 96-well plate (BD 356692) and cultured at 37° C. and 5% CO2. After the cells adhered, 10 μL of the compound to be tested which was gradiently diluted 3 times (0.0046 to 10 μM, 8 concentration points, in duplicate) was added and incubated for 2 hours, followed by addition of 100 μL of 4% paraformaldehyde (DINGGUO AR-0211) and incubated at room temperature for 45 minutes. Then 100 μL of 0.1% Triton X-100 solution was added and incubated for another 30 minutes.
Triton X-100 solution was removed and the cells were rinsed with 200 μl of PBS twice (300 rpm vibration for 1 minute). The blocking solution (1% BSA solution in PBS) (Genview FA016-100G) was added and incubated at room temperature for 2 hours. The plate was rinsed with PBS once (300 rpm, 1 min) and 30 μL of Ser473-p-Akt antibody (cell signaling 4060L) diluted with 0.1% BSA was added and incubated overnight at 4° C. Ser473-p-Akt antibody was removed and the plate was rinsed with PBS twice (300 rpm, 1 minute). 35 μL of Alexa Flour 488 donkey anti-rabbit IgG (Invitrogen A21206) was added and incubated at room temperature for 1.5 hours. The plate was rinsed with PBS twice (300 rpm, 1 minute) and 35 μL of 1.5 μM PI was added and incubated at room temperature for 0.5 h. The fluorescence intensity was measured with Acumen eX3 (TTP LabTech).
10 μM BEZ235 (Selleck S1009) treatment group was negative control and DMSO treatment group was positive control. Inhibition ratio %=[1−(the mean value of the fluorescence intensity of the compound to be tested−the mean value of the fluorescence intensity of the negative control group)/(the mean value of the fluorescence intensity of the positive control group−the mean value of the fluorescence intensity of the negative control group)]×100%

T3 sequence (P42338 whole entry): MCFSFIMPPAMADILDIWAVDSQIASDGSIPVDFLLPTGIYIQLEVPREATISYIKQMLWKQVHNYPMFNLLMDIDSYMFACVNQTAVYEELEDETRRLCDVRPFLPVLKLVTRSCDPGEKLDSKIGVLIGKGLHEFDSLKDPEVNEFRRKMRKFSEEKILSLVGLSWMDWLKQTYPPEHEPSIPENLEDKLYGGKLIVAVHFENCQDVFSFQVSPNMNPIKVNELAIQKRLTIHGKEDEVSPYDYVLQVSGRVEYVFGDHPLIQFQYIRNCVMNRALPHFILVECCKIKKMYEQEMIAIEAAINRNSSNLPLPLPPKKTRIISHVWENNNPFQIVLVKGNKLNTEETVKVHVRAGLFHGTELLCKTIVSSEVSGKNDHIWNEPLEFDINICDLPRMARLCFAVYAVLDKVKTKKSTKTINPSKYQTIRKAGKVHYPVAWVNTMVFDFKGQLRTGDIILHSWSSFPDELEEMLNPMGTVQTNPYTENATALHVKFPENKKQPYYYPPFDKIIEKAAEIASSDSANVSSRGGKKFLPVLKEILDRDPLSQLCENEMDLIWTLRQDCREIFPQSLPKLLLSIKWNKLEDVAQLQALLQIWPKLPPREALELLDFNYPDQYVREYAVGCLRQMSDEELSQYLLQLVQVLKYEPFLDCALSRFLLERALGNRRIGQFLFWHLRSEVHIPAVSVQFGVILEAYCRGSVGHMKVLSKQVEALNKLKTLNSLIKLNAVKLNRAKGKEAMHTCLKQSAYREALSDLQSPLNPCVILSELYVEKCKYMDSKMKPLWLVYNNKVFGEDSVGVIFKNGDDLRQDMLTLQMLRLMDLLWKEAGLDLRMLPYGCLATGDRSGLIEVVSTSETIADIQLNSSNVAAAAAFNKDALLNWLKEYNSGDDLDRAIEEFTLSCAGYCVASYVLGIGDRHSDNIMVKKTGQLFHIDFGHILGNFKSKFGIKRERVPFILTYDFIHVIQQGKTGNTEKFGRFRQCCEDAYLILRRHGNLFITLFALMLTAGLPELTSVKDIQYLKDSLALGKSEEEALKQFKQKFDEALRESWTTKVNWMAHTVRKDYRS
T3 sequence (P27986 whole entry partner): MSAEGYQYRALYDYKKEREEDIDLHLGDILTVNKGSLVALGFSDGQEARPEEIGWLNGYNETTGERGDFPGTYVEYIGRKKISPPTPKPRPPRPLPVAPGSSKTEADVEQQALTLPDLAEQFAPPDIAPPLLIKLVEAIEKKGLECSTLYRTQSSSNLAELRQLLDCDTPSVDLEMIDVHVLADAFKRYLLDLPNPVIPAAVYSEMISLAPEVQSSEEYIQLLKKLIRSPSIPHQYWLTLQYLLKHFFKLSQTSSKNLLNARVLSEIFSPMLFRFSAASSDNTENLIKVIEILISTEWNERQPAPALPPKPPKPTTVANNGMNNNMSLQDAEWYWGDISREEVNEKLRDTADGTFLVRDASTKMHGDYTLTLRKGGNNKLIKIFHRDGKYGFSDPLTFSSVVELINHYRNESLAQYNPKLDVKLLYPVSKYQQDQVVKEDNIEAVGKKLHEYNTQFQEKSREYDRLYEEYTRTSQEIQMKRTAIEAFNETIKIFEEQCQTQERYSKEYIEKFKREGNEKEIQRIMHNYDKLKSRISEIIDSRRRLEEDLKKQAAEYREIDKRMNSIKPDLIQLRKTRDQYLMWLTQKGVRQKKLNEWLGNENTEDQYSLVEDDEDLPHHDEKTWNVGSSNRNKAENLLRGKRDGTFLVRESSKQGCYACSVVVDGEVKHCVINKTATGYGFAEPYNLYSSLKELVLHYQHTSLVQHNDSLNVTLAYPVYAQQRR
T2 sequence (P42336 whole entry): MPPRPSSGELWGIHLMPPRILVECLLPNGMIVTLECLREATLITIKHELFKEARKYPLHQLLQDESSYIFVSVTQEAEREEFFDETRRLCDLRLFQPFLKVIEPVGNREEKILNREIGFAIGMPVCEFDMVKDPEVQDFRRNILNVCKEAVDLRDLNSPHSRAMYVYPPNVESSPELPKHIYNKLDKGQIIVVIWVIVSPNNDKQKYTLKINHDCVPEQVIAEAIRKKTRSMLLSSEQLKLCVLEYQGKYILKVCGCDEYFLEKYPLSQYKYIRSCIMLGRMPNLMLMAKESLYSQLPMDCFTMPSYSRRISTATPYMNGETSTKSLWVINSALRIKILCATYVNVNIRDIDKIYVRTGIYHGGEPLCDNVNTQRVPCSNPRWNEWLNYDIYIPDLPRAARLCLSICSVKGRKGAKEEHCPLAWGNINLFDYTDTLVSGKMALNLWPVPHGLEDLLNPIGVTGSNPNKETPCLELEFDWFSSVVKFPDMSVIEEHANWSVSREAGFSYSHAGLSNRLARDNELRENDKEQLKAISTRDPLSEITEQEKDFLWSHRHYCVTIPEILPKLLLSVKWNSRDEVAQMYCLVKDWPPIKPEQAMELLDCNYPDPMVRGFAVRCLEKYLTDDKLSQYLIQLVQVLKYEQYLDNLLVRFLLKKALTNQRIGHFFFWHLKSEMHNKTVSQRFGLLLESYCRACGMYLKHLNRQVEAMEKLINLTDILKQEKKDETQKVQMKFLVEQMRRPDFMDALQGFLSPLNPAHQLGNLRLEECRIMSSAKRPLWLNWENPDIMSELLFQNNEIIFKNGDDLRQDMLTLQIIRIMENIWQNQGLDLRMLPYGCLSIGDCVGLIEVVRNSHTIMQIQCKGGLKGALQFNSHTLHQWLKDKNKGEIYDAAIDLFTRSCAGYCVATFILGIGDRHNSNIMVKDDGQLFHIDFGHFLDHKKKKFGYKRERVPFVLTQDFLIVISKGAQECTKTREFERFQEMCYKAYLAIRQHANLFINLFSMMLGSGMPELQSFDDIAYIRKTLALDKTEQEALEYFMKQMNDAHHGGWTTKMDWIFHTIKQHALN
T2 sequence (P27986 whole entry partner): as the sequence (P27986 whole entry partner) above
T4 sequence (O00329 whole entry): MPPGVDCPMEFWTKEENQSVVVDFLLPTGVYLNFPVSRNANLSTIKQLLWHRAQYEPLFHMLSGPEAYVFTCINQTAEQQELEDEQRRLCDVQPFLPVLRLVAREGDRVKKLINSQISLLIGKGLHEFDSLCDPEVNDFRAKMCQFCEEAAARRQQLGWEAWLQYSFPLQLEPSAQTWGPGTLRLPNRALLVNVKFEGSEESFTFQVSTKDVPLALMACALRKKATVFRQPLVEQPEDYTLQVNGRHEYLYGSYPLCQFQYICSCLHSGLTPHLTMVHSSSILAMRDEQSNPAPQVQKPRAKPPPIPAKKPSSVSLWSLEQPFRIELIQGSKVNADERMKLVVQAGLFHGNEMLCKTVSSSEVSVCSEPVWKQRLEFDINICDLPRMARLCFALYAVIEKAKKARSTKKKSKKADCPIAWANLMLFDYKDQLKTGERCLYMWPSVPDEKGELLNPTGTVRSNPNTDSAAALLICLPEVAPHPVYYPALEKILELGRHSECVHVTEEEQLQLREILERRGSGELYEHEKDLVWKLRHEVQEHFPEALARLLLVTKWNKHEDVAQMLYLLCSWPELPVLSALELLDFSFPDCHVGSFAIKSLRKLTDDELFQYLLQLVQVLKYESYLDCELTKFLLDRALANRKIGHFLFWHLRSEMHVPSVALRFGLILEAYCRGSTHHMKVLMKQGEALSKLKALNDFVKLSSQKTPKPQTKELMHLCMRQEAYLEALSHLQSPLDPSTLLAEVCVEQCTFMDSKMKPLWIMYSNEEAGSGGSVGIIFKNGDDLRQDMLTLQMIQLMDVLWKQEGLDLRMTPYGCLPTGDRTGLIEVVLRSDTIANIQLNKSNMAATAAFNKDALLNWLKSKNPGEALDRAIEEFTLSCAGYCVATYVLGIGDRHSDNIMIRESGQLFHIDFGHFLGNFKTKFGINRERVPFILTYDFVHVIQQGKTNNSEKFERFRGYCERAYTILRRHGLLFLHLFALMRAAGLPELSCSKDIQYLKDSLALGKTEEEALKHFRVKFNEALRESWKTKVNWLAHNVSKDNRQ
T4 sequence (P27986 whole entry partner): as the sequence (P27986 whole entry partner) above
T1 sequence (P48736 whole entry): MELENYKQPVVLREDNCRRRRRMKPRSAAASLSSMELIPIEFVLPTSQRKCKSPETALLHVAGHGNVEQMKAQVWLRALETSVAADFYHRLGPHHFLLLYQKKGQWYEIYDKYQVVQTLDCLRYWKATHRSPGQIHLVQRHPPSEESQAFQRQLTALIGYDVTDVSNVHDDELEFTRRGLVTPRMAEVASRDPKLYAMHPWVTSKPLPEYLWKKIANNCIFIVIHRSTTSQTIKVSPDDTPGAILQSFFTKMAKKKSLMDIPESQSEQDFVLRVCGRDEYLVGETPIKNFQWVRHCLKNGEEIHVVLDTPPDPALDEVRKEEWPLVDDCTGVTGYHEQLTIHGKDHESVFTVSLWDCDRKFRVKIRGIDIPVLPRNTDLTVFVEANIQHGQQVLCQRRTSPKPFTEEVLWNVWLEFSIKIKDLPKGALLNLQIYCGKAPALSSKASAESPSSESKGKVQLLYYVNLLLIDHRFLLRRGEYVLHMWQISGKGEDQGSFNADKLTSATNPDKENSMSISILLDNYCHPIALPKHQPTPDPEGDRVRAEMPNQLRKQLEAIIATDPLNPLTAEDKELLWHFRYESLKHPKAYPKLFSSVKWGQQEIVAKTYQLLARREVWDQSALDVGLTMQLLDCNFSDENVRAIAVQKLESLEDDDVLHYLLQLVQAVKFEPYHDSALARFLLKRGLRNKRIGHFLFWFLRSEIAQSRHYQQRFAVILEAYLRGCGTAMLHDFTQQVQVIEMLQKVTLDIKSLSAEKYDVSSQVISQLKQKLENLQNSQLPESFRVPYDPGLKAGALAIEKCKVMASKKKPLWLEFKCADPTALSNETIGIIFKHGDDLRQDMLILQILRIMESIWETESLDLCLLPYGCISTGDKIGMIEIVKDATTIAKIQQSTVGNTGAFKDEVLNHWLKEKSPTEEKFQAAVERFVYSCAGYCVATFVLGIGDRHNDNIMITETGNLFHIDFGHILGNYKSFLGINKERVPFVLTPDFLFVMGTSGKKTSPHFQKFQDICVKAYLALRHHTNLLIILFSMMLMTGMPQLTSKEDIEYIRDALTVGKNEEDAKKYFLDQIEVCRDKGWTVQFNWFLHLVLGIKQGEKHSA

| Structure (SMILES) | IC50 (PI3K-γ kinase (p110γ)) [nM] | IC50 ([1]; Table 1, read-out: PI3K-α/nM (IC50 of inhibitory activity against PI3K kinase)) [nM] | IC50 [2] [nM] | IC50 [3] [nM] | Clearance ratio (mL/min/kg) mouse [4] [mL/min/kg] | IC50 (NIH3T3 cells; Mus musculus, NIH3T3, 72 h) [nM] | IC50 (T47D cells) [nM] | IC50 [5] [nM] | IC50 ([1]; Table 2, read-out: PI3K-α/nM (IC50 of inhibitory activity against PI3K-α kinase)) [nM] | IC50 (NIH3T3 cells; 72 h) [nM] |
| --- | --- | --- | --- | --- | --- | --- | --- | --- | --- | --- |
| Nc1cc(C(F)(F)F)c(-c2cc(C3(S(=O)(=O)c4ccc(F)cc4)CC3)nc(N3CCOCC3)n2)cn1 [Compound S-59] | 813 | 37 | 721 | 235 | 7163.43 | 1000 to 3000 | – | – | – | – |
| CC(C)(c1cc(-c2cnc(N)cc2C(F)(F)F)nc(N2CCOCC2)n1)S(=O)(=O)c1ccccc1 [Compound S-21] | 843 | – | 832 | 214 | 6337.31 | 1000 to 3000 | – | – | – | – |
| CC(C)(O)c1cc(-c2cnc(N)cc2C(F)(F)F)nc(N2CCOCC2)n1 [Compound S-50, 2-(6-(6-amino-4-(trifluoromethyl)pyridin-3-yl)-2-morpholin-4-yl)propan-2-ol] | – | – | – | – | – | – | 449 | 39 | 39 | 1000 to 3000 |
